Where a SMILES comes first, the peptide text is derived from it.
Legend:
Tau^Δ1‐250 = molecular target: T1, Tau^Δ1‐250 (Homo sapiens, UniProt P10636); assay: ThT fluorescence, heparin-induced aggregation of Tau^Δ1‐250; assay type: biochemical; conditions: 5 µM heparin, pH 7.4, triplicate; for effect on Tau^Δ1‐250 aggregation (in words): ThT end-point 24 h, 20 µM Tau^Δ1‐250, 20 µM peptide
T1 construct: Tau^Δ1‐250 (an aggregate prone truncated version of full‐length Tau); made in house; host or cells: E. coli BL21(DE3)
T1 sequence (P10636 568-758, stated change not applied): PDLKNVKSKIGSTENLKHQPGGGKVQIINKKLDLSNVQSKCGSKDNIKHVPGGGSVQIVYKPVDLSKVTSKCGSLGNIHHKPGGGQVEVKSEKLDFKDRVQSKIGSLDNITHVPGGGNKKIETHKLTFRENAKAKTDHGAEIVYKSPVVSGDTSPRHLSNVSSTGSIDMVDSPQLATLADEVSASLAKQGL
Procedure: (§1) Fluorescence was measured (λex = 442 nm, λem = 483 nm), and data were normalized. […] The addition of inhibitor to the growth phase was controlled by adding an equivalent volume of buffer alone.
(§2) Experiments were conducted in triplicate and error bars were reported as standard deviation. Statistical analysis: p > 0.05, *p ≤ 0.05, **p ≤ 0.01, ***p ≤ 0.001.

Tau^2N4R = molecular target: T2, Tau^2N4R (Homo sapiens, UniProt P10636); assay: ThT fluorescence end-point, heparin-induced aggregation of Tau^2N4R; assay type: biochemical; conditions: ThT end-point 216 h (9 days); Tau^2N4R, 20 µM peptide, 10 µM heparin, pH 7.4
T2 construct: and full‐length Tau (Tau^2N4R); made in house; host or cells: E. coli BL21
T2 sequence (P10636 1-441 isoform P10636-8): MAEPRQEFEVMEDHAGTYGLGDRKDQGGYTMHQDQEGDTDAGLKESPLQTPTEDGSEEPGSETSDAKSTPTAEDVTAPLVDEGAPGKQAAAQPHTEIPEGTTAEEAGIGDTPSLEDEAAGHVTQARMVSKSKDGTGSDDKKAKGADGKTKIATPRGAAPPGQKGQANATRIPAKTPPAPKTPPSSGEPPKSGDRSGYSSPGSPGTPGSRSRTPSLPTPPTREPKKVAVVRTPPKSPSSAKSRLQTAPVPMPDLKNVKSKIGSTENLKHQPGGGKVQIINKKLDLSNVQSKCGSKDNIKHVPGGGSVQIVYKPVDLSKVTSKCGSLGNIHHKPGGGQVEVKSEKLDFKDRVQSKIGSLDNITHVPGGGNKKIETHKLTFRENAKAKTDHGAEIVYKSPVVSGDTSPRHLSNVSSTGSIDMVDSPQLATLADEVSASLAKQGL
Procedure: as §1
FIGURE 3 Lead peptide RI‐AG03 dose‐response and target specificity. […] (C) Concentration‐dependent inhibition of by Tau^Δ1‐250 by RI‐AG03. […] (E) Concentration‐dependent inhibition of by Tau^2N4R by RI‐AG03. […] (F) log10 scatter graph of Tau^2N4R inhibition by RI‐AG03 employing a curve fitting algorithm to calculate the IC50 at 5 µM. Experiments were conducted in triplicate and error bars were reported as standard deviation. One factor repeated measures ANOVA + Tukey post hoc statistical analysis: p > 0.05, *p ≤ 0.05, **p ≤ 0.01, ***p ≤ 0.001.

[1] = tested on: Tau repeat domain (RD) with the P301S mutation fused to mCer and mClo, HEK293 biosensor cells; assay: Tau fibril seeding in FRET Tau biosensor cells; assay type: cell-based, human; conditions: biosensor cells, fibrils preincubated with 0–500 µM peptide; Figure 5C
Procedure: Tau biosensor cells culture: RD P301S Tau biosensor cells have been previously described,[45] and in this case v2L cells were used. Cells were cultured in 10 cm dishes containing Dulbecco's Modified Eagle's Medium (DMEM) (Gibco) enriched with 10% FBS (HyClone), 1% penicillin/streptomycin (Gibco), and 1% GlutaMAX (Gibco) at 37°C with 5% CO2 in a humidified incubator.
5 µM of tau fibrils (monomer equivalent) were incubated in PBS with peptide RI‐AG03 or scramble (0–500 µM) at 300 rpm agitation at 4°C for 16 h. The reaction was stopped by flash freezing in liquid nitrogen and stored at –20°C. Tau biosensor cells were plated at a density of 30,000 cells in 120 µL of media per well in a 96‐well plate. After 18 h, using Lipofectamine 2000 cells were transduced with 10 nM of treated fibrils that had been briefly sonicated for 30 s at 65 Amp (QSonica). Lipofectamine complexes were formed in 30 µL consisting of 14.17 µL Opti‐MEM (Gibco), 15 µL of treated fibrils diluted in PBS, and 0.83 µL lipofectamine 2000 (Invitrogen), bringing the total volume to 150 µL. […] Aggregates in Tau biosensors (10,000 minimum) were quantified by FRET flow cytometry in a LSRFortessa SORP (BD Biosciences). To detect the cerulean signal, cells were excited with a 405 nm laser, and fluorescence was captured at […]. For clover signal, cells were excited with a 488 nm laser and fluorescence was detected at 525/50 nm. Flow cytometry data were analyzed using a gating strategy previously described.[45], [47] The percentage of cells with positive FRET signal were quantified. Each condition was analyzed in quadruplicate. […]
To test RI‐AG03 efficacy in mammalian cells, we utilized a fluorescence resonance energy transfer (FRET) biosensor HEK293 cell line that stably expresses the Tau repeat domain (RD) with the P301S mutation fused to mCer and mClo. These cells[45] or prior generations[71] have been used extensively to quantify Tau seeding activity and measure intracellular aggregation.[71] […] Seeded aggregation was quantified by the percentage of FRET positivity.

[2] = ThT fluorescence, self-assembly of peptide inhibitors without Tau; assay type: physicochemical; conditions: ThT end-point 24 h, 37°C; 20 µM peptide without Tau, 5 µM heparin, 30 mM Tris, 1 mM DTT, 15 µM ThT, pH 7.4; triplicate
Procedure: as §1, §2

Structure (SMILES)	effect on Tau^Δ1‐250 aggregation (in words) (Tau^Δ1‐250)	self-aggregation of peptide (in words) [2]	also measured
CC[C@H](C)[C@H](NC(=O)[C@H](CCC(N)=O)NC(=O)[C@@H](NC(=O)CNC(=O)[C@H](CCCNC(=N)N)NC(C)=O)C(C)C)C(=O)N[C@H](C(=O)N[C@@H](Cc1ccc(O)cc1)C(=O)N[C@@H](CCCCN)C(=O)N1CCC[C@H]1C(=O)NCC(=O)N[C@@H](CCCNC(=N)N)C(=O)N[C@@H](CCCNC(=N)N)C(=O)N[C@@H](CCCNC(=N)N)C(=O)N[C@@H](CCCNC(=N)N)C(N)=O)C(C)C [AG02PR5] (Ac-RGVQIVYKPGRRRR-NH2)	no additional benefit	–	–
CC[C@H](C)[C@H](NC(=O)[C@H](CCCCN)NC(=O)[C@@H]1CCCN1C(=O)[C@H](CCC(N)=O)NC(=O)CNC(=O)[C@H](CCCNC(=N)N)NC(C)=O)C(=O)N[C@@H](CCCCNC(C)=O)C(=O)N[C@@H](Cc1ccc(O)cc1)C(=O)N[C@H](C(=O)NCC(=O)N[C@@H](CCCNC(=N)N)C(=O)N[C@@H](CCCNC(=N)N)C(=O)N[C@@H](CCCNC(=N)N)C(=O)N[C@@H](CCCNC(=N)N)C(=O)N[C@@H](CCCNC(=N)N)C(=O)N[C@@H](CCCNC(=N)N)C(=O)N[C@@H](CCCNC(=N)N)C(=O)N[C@@H](CCCNC(=N)N)C(N)=O)C(C)C [Scramble AG03, reference compound] (Ac-RGQPKIK(Ac)YVGRRRRRRRR-NH2)	no effect on aggregation	–	effect on Tau^2N4R aggregation (in words) (Tau^2N4R): did not suppress aggregation; concentrations with peptide‐induced toxicity (decrease in FRET positivity) [1]: above 100 µM
CC[C@H](C)[C@H](NC(=O)[C@H](CCC(N)=O)NC(=O)[C@@H](NC(=O)CNC(=O)[C@H](CCCNC(=N)N)NC(C)=O)C(C)C)C(=O)N[C@H](C(=O)N[C@@H](Cc1ccc(O)cc1)C(=O)N[C@@H](CCCCN)C(=O)NCC(=O)N[C@@H](CCCNC(=N)N)C(=O)N[C@@H](Cc1ccc(O)cc1)C(=O)NCC(=O)N[C@@H](CCCNC(=N)N)C(=O)N[C@@H](CCCCN)C(=O)N[C@@H](CCCCN)C(=O)N[C@@H](CCCNC(=N)N)C(=O)N[C@@H](CCCNC(=N)N)C(=O)N[C@@H](CCC(N)=O)C(=O)N[C@@H](CCCNC(=N)N)C(=O)N[C@@H](CCCNC(=N)N)C(=O)N[C@@H](CCCNC(=N)N)C(N)=O)C(C)C [AG02TAT] (Ac-RGVQIVYKGRYGRKKRRQRRR-NH2)	no significant additional inhibitory benefits	greater self‐association into β‐sheets than all other AG02‐derived peptides	–
CC(=O)NCCCC[C@H](NC(=O)[C@H](CCC(N)=O)NC(=O)[C@@H](NC(=O)CNC(=O)[C@H](CCCNC(=N)N)NC(C)=O)C(C)C)C(=O)N[C@H](C(=O)N[C@@H](Cc1ccc(O)cc1)C(=O)N[C@@H](CCCCN)C(=O)NCC(=O)N[C@@H](CCCNC(=N)N)C(N)=O)C(C)C [AG02∆I] (Ac-RGVQK(Ac)VYKGR-NH2)	–	demonstrated self‐aggregation ability	–
CC[C@H](C)[C@H](NC(=O)[C@H](CCC(N)=O)NC(=O)[C@@H](NC(=O)CNC(=O)[C@H](CCCNC(=N)N)NC(C)=O)C(C)C)C(=O)N[C@@H](CCCCNC(C)=O)C(=O)N[C@@H](Cc1ccc(O)cc1)C(=O)N[C@@H](CCCCN)C(=O)NCC(=O)N[C@@H](CCCNC(=N)N)C(N)=O [AG02∆V] (Ac-RGVQIK(Ac)YKGR-NH2)	–	demonstrated a tendency for self‐aggregation, though to a smaller extent	–
CC(=O)N[C@@H](CCCNC(=N)N)C(=O)N[C@@H](CCCNC(=N)N)C(=O)N[C@@H](CCCNC(=N)N)C(=O)N[C@@H](CCCNC(=N)N)C(=O)N[C@@H](CCCNC(=N)N)C(=O)N[C@@H](CCCNC(=N)N)C(=O)N[C@@H](CCCNC(=N)N)C(=O)N[C@@H](CCCNC(=N)N)C(=O)N[C@@H](CCCNC(=N)N)C(N)=O [Poly‐arginine, reference compound]	no effect on aggregation	–	–

More lines, main results first:

effect on Tau^Δ1‐250 aggregation (in words) (Tau^Δ1‐250)	self-aggregation of peptide (in words) [2]	Structure (SMILES)	also measured
–	self‐aggregated	CC[C@H](C)[C@H](NC(=O)[C@H](CCC(N)=O)NC(=O)[C@@H](NC(=O)CNC(=O)[C@H](CCCNC(=N)N)NC(C)=O)C(C)C)C(=O)N[C@H](C(=O)N[C@@H](CC(N)=O)C(=O)N[C@@H](CCCCN)C(=O)NCC(=O)N[C@@H](CCCNC(=N)N)C(N)=O)[C@@H](C)CC [AG01] (Ac-RGVQIINKGR-NH2)	–
–	minimal self‐aggregation	CC[C@H](C)[C@H](NC(=O)[C@H](CCC(N)=O)NC(=O)[C@@H](NC(=O)CNC(=O)[C@H](CCCNC(=N)N)NC(C)=O)C(C)C)C(=O)N[C@@H](CCCCNC(C)=O)C(=O)N[C@@H](Cc1ccc(O)cc1)C(=O)N[C@@H](CCCCN)C(=O)N1CCC[C@H]1C(=O)NCC(=O)N[C@@H](CCCNC(=N)N)C(=O)N[C@@H](CCCNC(=N)N)C(=O)N[C@@H](CCCNC(=N)N)C(=O)N[C@@H](CCCNC(=N)N)C(=O)N[C@@H](CCCNC(=N)N)C(=O)N[C@@H](CCCNC(=N)N)C(=O)N[C@@H](CCCNC(=N)N)C(=O)N[C@@H](CCCNC(=N)N)C(N)=O [AG03] (Ac-RGVQIK(Ac)YKPGRRRRRRRR-NH2)	inhibition of Tau^Δ1‐250 aggregation (Tau^Δ1‐250; ThT end-point after 24 h, 37°C, 20 µM Tau^Δ1‐250, 20 µM peptide (equimolar), 30 mM Tris, 1 mM DTT, 15 µM ThT): ~53%
did not affect peptide inhibitory action	–	CC[C@H](C)[C@H](NC(=O)[C@H](CCC(N)=O)NC(=O)[C@@H](NC(=O)CNC(=O)[C@H](CCCNC(=N)N)NC(=O)[C@H](CCCNC(=N)N)NC(=O)[C@H](CCCNC(=N)N)NC(=O)[C@H](CCCNC(=N)N)NC(C)=O)C(C)C)C(=O)N[C@H](C(=O)N[C@@H](Cc1ccc(O)cc1)C(=O)N[C@@H](CCCCN)C(=O)NCC(=O)N[C@@H](CCCNC(=N)N)C(N)=O)C(C)C [AGR502] (Ac-RRRRGVQIVYKGR-NH2)	–

— publication PMC11567856, “A novel peptide‐based tau aggregation inhibitor as a potential therapeutic for Alzheimer's disease and other tauopathies” (Alzheimer's & Dementia, 2024)
